Paper PMC9489722, “Identification and development of a subtype-selective allosteric AKT inhibitor suitable for clinical development” (Scientific Reports, 2022)
Where two headings read alike, the source gives them in different places.

What was measured:
AKT3 [1] = target: T1, AKT3 (Homo sapiens, UniProt Q9Y243); assay: AKT3 biochemical kinase assay (FP iMAP)
T1 construct: purchased Signal Chem
Procedure: Biochemical analysis was performed using kinases obtained from Millipore (AKT1, ∆AKT1, ∆AKT2, ∆AKT3) and Signal Chem (AKT2 and AKT3). […] (Molecular Devices) against the three isoforms of AKT and their PH domain null mutants. Compounds were dissolved in DMSO prior to screening at 14 point titration series in the range (50 µM–50 pM). Fluorescence polarisation was measured using a Biotek Synergy 4 Hybrid microplate reader. Percentage inhibition of kinase activity was calculated and IC50 values derived using non-linear regression on GraphPad Prism. Competition of ALM301 with ATP was determined using AKT1 under increasing ATP concentrations up to 1000 µM.

AKT3 [2] = target: T1, AKT3; assay: SelectScreen kinase selectivity profiling, AKT3; assay type: biochemical; details: read-out: % inhibition @ 10 µM, AKT3; 10 µM fixed concentration
Procedure: Off-target kinase activity was performed using the SelectScreen kinase profiling service against either mini 50 kinase or full 450 kinase panels using the Z’lyte and Adapta kinase activity platforms (performed by Thermofisher).

T1 sequence (Q9Y243 whole entry): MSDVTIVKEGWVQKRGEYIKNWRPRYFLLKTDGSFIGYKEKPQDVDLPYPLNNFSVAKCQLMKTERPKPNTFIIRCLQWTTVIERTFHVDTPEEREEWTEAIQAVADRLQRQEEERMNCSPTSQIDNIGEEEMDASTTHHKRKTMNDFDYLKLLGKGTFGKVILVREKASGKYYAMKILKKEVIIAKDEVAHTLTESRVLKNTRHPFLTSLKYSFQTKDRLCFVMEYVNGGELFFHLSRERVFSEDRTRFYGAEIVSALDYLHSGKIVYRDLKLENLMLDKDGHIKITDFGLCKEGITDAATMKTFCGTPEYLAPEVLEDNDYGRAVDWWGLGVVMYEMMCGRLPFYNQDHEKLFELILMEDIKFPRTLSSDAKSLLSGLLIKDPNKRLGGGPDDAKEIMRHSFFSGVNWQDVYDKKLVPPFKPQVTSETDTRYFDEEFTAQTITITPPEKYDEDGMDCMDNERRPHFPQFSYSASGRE

## CCN1C(=O)COc2nc(-c3ccc([C@]4(N)C[C@@H](O)C4)cc3)c(-c3ccccc3)cc21 [ALM301, 6-(4-((1S,3S)-1-amino-3-hydroxycyclobutyl)phenyl)-1-ethyl-7-phenyl-1H-pyrido[2,3-b][1,4]oxazin-2(3H)-one]
AKT3 [1]; in vitro kinase assays
  potency versus AKT3 reduced relative to AKT1 and AKT2: over 20 fold
AKT3 [1]; read-out: AKT IC50, AKT3
  IC50: 2.75 µM
AKT3 [1]; read-out: IC50 AKT3
  IC50: > 0.5 µM
AKT3 [2]
  inhibition at 10 µM: 72%
